Earlier results in US20060134216A1, “Enteric film coating composition containing enteric polymer micronized with detackifier” (priority 2004, published 2006).

Details: aqueous solution at pH values under 4.0

- half-life: less than ten
Structure (SMILES): COc1ccc2[nH]c([S+]([O-])Cc3ncc(C)c(OC)c3C)nc2c1 (stereo not shown) [omeprazole]
